Key:
PSMA = PSMA (Homo sapiens, UniProt Q04609); assay: Enzyme assay of probes and PSMA (fluorescence increase); type: biochemical; details: 10 μM probe in TBS buffer, 37° C., 22 ng PSMA, Ex/Em=355/460 nm
Protocol: An enzyme assay was performed using the synthesized 4MU-tSoul-AE and PSMA.
An enzyme assay was performed using the synthesized 4MU-tSoul-GE and PSMA.
Here, FIG. 9(a) illustrates a reaction scheme of 4MU-tSoul-GE and PSMA. […] Ex/Em=355/460 nm. n=3.

carboxypeptidase B (CPB) = target: T1, carboxypeptidase B (CPB) (Homo sapiens, UniProt P15086); type: biochemical; details: for fluorescence change on incubation with CPB: 10 μM probe in PBS(-), Ex/Em=355/460 nm
T1 sequence (P15086 111-417): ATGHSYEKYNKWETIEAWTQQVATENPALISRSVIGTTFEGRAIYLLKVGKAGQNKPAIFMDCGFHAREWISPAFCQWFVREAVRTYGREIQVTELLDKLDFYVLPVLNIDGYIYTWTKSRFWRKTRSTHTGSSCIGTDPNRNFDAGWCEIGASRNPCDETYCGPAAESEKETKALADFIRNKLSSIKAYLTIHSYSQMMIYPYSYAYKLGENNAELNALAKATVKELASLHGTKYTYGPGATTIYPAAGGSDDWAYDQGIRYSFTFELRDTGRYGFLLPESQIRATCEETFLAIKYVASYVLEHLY
Protocol: (§1) An enzyme assay using the synthesized Compounds A, B was performed. As a result, the fluorescence of Compounds A and B was increased by incubation with carboxypeptidase A (CPA) and carboxypeptidase B (CPB) which were the respective target enzymes, and the increase in fluorescence was suppressed by addition of (S)-benzylsuccinic acid and MGTA which were the respective inhibitors.
FIG. 3(a) illustrates a reaction scheme of Compound B and CPB. In FIG. 3(b), 10 μM Compound B in PBS (-) was incubated at 37° C. with 5 ng CPB in the presence or absence of 100 μM inhibitor (MGTA) containing 0.1% DMSO as a co-solvent. Ex/Em=355/460 nm. n=4.
An enzyme assay using the synthesized Compound C and CPB was performed.
(§2) FIG. 4(a) illustrates a reaction scheme of Compound C and CPB. In FIG. 4(b), 10 μM Compound C in PBS (-) was incubated at 37° C. in the presence or absence of 5 ng CPB containing 0.1% DMSO as a co-solvent. Ex/Em=355/460 nm. n=4. […] 10 μM Compound A or Compound C in PBS (-) was incubated at 37° C. in the absence of CPB. Ex/Em=355/460 nm. n=4.
(§3) Next, reactivity with CPB and the stability in a buffer solution having a pH of 7.4 were examined. As a result, it became clear that while HMRef-tSoul-AR caused a fluorescence increase of 3320 times by reaction with CPB, HMRef-tSoul-AR was stable for at least about 1 hour in the absence of enzyme. The results are illustrated in FIG. 5.
(§4) FIG. 5(a) illustrates a reaction scheme of HMRef-tSoul-AR and CPB. FIG. 5(b) illustrates the fluorescence increase of 1 μM HMRef-tSoul-AR in PBS (-) incubated with 30 μg CPB containing 0.1% DMSO as a co-solvent. Incubation was performed at 25° C. The excitation wavelength was 498 nm. FIG. 5(c) illustrates an absorption change of 1 μM HMRef-tSoul-AR in PBS (-) at 25° C. for 50 minutes.

[1] = type: physicochemical; details: for fluorescence change in the absence of enzyme (non-enzymatic degradation): 10 μM probe in PBS(-), pH 7.4, 37° C., no enzyme
Protocol: as §1, §2, §3, §4

CPB = target: T2, CPB (Homo sapiens, UniProt P15086); assay: Enzyme reaction rate parameters with CPB (fluorescence method, plate reader); type: biochemical; details: CPB 5 ng, 37° C., PBS pH 7.4, 20 μL, apparent
T2 sequence (P15086 111-417): T1 sequence (P15086 111-417)
Protocol: (§5) In addition, an enzyme reaction rate parameter was calculated.
(§6) All experiments were performed at 37° C. in a total volume of 20 μL of phosphate buffered saline (pH 7.4) containing DMSO as a co-solvent. 5 ng of CPB or CPM was added. An enzyme reaction initial rate was calculated from a fluorescence change at 535 nm using a plate reader (n=3). The excitation wavelength was 485 nm.

[2] = test system: basic carboxypeptidase activity in breast cancer tissue; assay: Fluorescence imaging of clinical specimens derived from breast cancer patients; parameters: species or system human
Protocol: Four specimens (IDC: invasive ductal carcinoma, 3 cases; DCIS: ductal carcinoma in situ, 1 case) derived from breast cancer patients were subjected to fluorescence imaging by applying HMRef-tSoul-AR to a tumor site and a normal site by the following procedure (FIG. 10).
HMRef-tSoul-AR was dissolved in PBS so as to have a final concentration of 50 μM (containing 1% DMSO), and applied to clinical specimens from breast cancer patients in the presence and absence of 100 μM MGTA. A fluorescence image was captured on Maestro in vivo imaging system (PerkinElmer, Inc., MA, USA), a 455 nm (435-480 nm) band pass filter was used as an excitation light filter, and a 490 nm long pass filter was used as a fluorescence filter.
When an increase was observed, in order to examine whether or not the increase was derived from basic carboxypeptidase activity, a group to which the inhibitor MGTA was added was also examined at the same time.

carboxypeptidase M (CPM) = target: T3, carboxypeptidase M (CPM) (Homo sapiens, UniProt P14384); assay: Enzyme reaction rate parameters with CPM (fluorescence method, plate reader); type: biochemical
T3 sequence (P14384 18-423): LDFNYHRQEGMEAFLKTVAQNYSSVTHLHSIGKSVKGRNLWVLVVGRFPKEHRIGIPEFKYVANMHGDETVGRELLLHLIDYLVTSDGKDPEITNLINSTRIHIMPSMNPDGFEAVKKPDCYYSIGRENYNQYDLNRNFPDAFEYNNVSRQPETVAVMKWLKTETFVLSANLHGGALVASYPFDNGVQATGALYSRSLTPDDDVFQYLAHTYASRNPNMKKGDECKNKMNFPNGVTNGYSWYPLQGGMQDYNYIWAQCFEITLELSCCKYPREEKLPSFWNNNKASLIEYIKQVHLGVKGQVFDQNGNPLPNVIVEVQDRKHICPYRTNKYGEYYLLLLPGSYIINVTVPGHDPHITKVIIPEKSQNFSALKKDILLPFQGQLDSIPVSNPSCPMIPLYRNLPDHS
Protocol: as §5, §6

[3] = test system: MDCK cells expressing CPM; assay: Live imaging of CPM activity in MDCK cells; type: cell-based
Protocol: Live imaging of the carboxypeptidase activity in living cells was performed using HMRef-tSoul-AR synthesized above. […] Since it has been reported that CPM is expressed as an active form on a cell membrane unlike CPB, addition of trypsin or the like is unnecessary.
Here, FIGS. 6(a) and 6(b) illustrate fluorescence images of the MDCK cells containing 10 μM HMRef-tSoul-AR in HBSS in the presence (a) or absence (b) of 10 μM MGTA. Ex/Em=488/500-550 nm laser output 5%, PMT 600 V. 10 μM Hoechst 33342 was co-incubated for focal plane correction. For imaging of a Hoechst signal, Ex/Em=405/430-460 nm. Laser output 3%, PMT 1000 V, SP8.
Here, FIG. 7 illustrates results of UPLC analysis of a medium of the MDCK cells incubated with 20 μM HMRef-tSoul-AR in the presence or absence of 10 μM MGTA. The MDCK cells were incubated with 20 μM HMRef-tSoul-AR in HBSS at 37° C. for 20 hours in the presence or absence of 10 μM MGTA. Elution was performed with a linear gradient of C/D=95/5 to 5/95 in 4 minutes and detected at 254 nm.

carboxypeptidase A (CPA) = target: T4, carboxypeptidase A (CPA) (Homo sapiens, UniProt P15085); assay: Enzyme assay of Compound A and CPA (fluorescence increase); type: biochemical; details: 37° C.
T4 sequence (P15085 111-419): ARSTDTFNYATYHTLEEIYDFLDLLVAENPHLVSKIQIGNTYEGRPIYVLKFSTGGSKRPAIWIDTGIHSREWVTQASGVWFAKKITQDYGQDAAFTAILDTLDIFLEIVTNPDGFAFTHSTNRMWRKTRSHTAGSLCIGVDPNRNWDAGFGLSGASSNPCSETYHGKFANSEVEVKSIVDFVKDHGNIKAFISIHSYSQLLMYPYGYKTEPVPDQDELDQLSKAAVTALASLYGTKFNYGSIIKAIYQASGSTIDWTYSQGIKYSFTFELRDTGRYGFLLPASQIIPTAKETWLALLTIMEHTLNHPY
Protocol: An enzyme assay using the synthesized Compounds A, B was performed.
(§7) FIG. 2(a) illustrates a reaction scheme of Compound A and CPA. In FIG. 2(b), 10 μM Compound A in PBS (-) was incubated at 37° C. with 5 ng CPA activated by 1.5 μg trypsin in the presence or absence of 100 μM inhibitor ((S)-benzylsuccinic acid) containing 0.1% DMSO as a co-solvent. Ex/Em=355/460 nm. n=4. (In FIG. 2, Try represents trypsin, and SBSA represents (S)-benzylsuccinic acid.)

trypsin = target: T5, trypsin (Bos taurus, UniProt P00760); assay: Compound A with only trypsin added (control condition of the CPA assay); type: biochemical; details: 10 μM Compound A, no CPA
T5 construct: gene PRSS1
T5 sequence (P00760 24-246): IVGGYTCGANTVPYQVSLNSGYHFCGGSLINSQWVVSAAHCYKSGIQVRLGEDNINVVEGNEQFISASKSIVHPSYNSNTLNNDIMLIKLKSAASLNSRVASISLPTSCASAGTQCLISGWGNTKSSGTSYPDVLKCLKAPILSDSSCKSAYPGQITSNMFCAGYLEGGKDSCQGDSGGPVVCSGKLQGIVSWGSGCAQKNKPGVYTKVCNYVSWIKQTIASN
Protocol: as §1, §7

[4] = CPM 5 ng, 37° C., PBS pH 7.4, 20 μL, apparent

Sequence of PSMA (Q04609 whole entry): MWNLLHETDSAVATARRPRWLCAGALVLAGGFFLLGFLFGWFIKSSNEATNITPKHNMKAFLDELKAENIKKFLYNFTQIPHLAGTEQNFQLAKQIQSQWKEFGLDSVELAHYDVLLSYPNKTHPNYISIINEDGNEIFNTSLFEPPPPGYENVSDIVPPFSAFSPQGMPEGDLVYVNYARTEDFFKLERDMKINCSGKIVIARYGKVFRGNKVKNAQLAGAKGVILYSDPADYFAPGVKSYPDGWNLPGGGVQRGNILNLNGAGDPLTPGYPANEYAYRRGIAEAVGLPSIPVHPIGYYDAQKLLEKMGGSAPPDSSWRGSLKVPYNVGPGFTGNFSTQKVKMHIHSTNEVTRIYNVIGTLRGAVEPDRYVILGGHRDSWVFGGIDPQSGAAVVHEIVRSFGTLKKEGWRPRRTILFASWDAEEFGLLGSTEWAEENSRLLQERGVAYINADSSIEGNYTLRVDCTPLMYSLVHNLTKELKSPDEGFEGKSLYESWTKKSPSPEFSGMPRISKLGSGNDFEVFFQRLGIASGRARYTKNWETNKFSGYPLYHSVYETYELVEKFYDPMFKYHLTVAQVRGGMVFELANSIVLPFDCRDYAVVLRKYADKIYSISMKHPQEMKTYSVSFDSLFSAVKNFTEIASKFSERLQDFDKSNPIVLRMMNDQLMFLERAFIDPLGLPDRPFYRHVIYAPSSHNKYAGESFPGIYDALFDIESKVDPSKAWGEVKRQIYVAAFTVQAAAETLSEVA

With `Cc1cc(=O)oc2cc(OP(=O)(N[C@@H](C)C(=O)N[C@@H](CCC(=O)O)C(=O)O)C(C)(C)C)ccc12` (stereo partly shown) [Compound 4MU-tSoul-AE] as the compound, how does the “fluorescence change on incubation with PSMA” value (PSMA) read?
The value was “the increase in fluorescence was not observed”.

Which results are given for `Cc1cc(=O)oc2cc(OP(=O)(N[C@@H](C)C(=O)N[C@@H](CCCNC(=N)N)C(=O)O)C(C)(C)C)ccc12` (stereo partly shown) [Compound C]?
fluorescence change on incubation with CPB (carboxypeptidase B (CPB); 37° C., 5 ng CPB): served as a substrate for CPB and showed the increase in fluorescence; fluorescence change in the absence of enzyme (non-enzymatic degradation) [1]: no increase in fluorescence was observed

Which Km (CPB) does the source give for `C[C@H](NP(=O)(Oc1ccc2c(c1)Oc1cc(NCC(F)(F)F)ccc1C21OCc2ccccc21)C(C)(C)C)C(=O)N[C@@H](CCCNC(=N)N)C(=O)O` (stereo partly shown) [HMRef-tSoul-AR] here?
Its Km is 50 µM.

And the Vmax (CPB)?
Its Vmax is 1.2e-08 M/s.

What about the kcat (CPB) of the same compound?
The kcat was 1.7 s⁻¹.

What about the “fluorescence from tumor tissue as compared with normal tissue” value ([2]; 50 μM probe in PBS (1% DMSO), four breast cancer specimens) of the same compound?
Its value is “remarkable increase in fluorescence”.

What about the “substrate recognition by CPM” value (carboxypeptidase M (CPM)) of the same compound?
The value was “served as a substrate”.

What about the Km (carboxypeptidase M (CPM); [4]) of the same compound?
Its Km is 61 µM.

And the Vmax (carboxypeptidase M (CPM); [4])?
Its Vmax is 4e-08 M/s.

And the kcat (carboxypeptidase M (CPM); [4])?
Its kcat is 1.0 s⁻¹.

What about the “fluorescence increase by reaction with CPB” value (carboxypeptidase B (CPB); 1 μM probe in PBS(-), 30 μg CPB, 25° C., excitation 498 nm) of the same compound?
Its value is 3320 times.

And the “time stable in the absence of enzyme” value ([1]; 1 μM probe, buffer pH 7.4, 25° C., absorption change)?
The value was “at least 1 hour”.

And the “fluorescence from MDCK cells over time” value ([3]; 10 μM probe in HBSS, Ex/Em=488/500-550 nm)?
The value was “an increase in fluorescence over time from the MDCK cells was observed”.

And the “generation of HMRef in external liquid of MDCK cells (UPLC)” value ([3]; 20 μM probe, HBSS, 37° C., 20 hours)?
The value was “HMRef was certainly generated”.

With `CCOP(=O)(N[C@@H](C)C(=O)N[C@@H](CCCNC(=N)N)C(=O)O)Oc1ccc2c(C)cc(=O)oc2c1` (stereo partly shown) [Compound B] as the compound, how does the “fluorescence change on incubation with CPB” value (carboxypeptidase B (CPB); 37° C., 5 ng CPB) read?
Its value is “increased”.

What about the “fluorescence change in the absence of enzyme (non-enzymatic degradation)” value [1] of the same compound?
The value was “gradually increased even slightly”.

For `CCOP(=O)(N[C@@H](C)C(=O)N[C@@H](Cc1ccccc1)C(=O)O)Oc1ccc2c(C)cc(=O)oc2c1` (stereo partly shown) [Compound A], which “fluorescence change on incubation with CPA” value (carboxypeptidase A (CPA); 10 μM probe in PBS(-), 5 ng CPA activated by 1.5 μg trypsin, Ex/Em=355/460 nm) is on record?
Its value is “increased”.

And the “fluorescence change with only trypsin added” value (trypsin)?
The value was “a remarkable increase in fluorescence was not observed”.

What about the “fluorescence change in the absence of enzyme (non-enzymatic degradation)” value [1] of the same compound?
Its value is “gradually increased even slightly”.

With `O=C(O)C[C@H](Cc1ccccc1)C(=O)O` [(S)-benzylsuccinic acid, reference compound] as the compound, how does the “effect of inhibitor on the increase in fluorescence of Compound A with CPA” value (carboxypeptidase A (CPA); 100 μM inhibitor, 10 μM Compound A, 5 ng CPA) read?
Its value is “suppressed”.

Which “effect of inhibitor on the increase in fluorescence of HMRef-tSoul-AR in breast cancer specimens” value ([2]; 100 μM inhibitor, 50 μM HMRef-tSoul-AR) does the source give for `NC(N)=NCCSCC(CS)C(=O)O` (stereo not shown) [MGTA, reference compound] here?
The value was “suppressed”.

And the “effect of inhibitor on the increase in fluorescence of Compound B with CPB” value (carboxypeptidase B (CPB); 100 μM inhibitor, 10 μM Compound B, 5 ng CPB, 37° C.)?
The value was “suppressed”.

And the “effect of inhibitor on the increase in fluorescence of HMRef-tSoul-AR in MDCK cells” value ([3]; 10 μM inhibitor, 10 μM HMRef-tSoul-AR in HBSS)?
The value was “completely suppressed”.

With `Cc1cc(=O)oc2cc(OP(=O)(NCC(=O)N[C@@H](CCC(=O)O)C(=O)O)C(C)(C)C)ccc12` (stereo partly shown) [Compound 4MU-tSoul-GE] as the compound, how does the “fluorescence change on incubation with PSMA” value (PSMA) read?
The value was “the increase in fluorescence was observed”.
